Reference: patent publication US20180110754A1, “CENICRIVIROC FOR THE TREATMENT OF FIBROSIS” (Tobira Therapeutics, Inc., priority 2015, published 2018)

Experiment: Study 202: fasting metabolic laboratory parameters
Assay type: in vivo
Conditions: for Fasting HDL, mean change from baseline / Fasting LDL, mean change from baseline / Fasting total cholesterol, mean change from baseline / Fasting total cholesterol/HDL ratio, mean change from baseline / Fasting triglycerides, mean change from baseline / HOMA-IR, mean change from baseline / HbA1c, mean change from baseline: EFV
Text: All abnormalities in total cholesterol, LDL cholesterol, triglycerides, or glucose were Grade 1 or Grade 2.
Mean baseline values and changes from baseline in HbA1c, HOMA-IR, fasting LDL, fasting HDL, fasting total cholesterol, fasting total cholesterol/HDL ratio, and fasting triglycerides are shown in Table 36.

[1] = All CVC (N = 115), EFV (N = 28), through Week 48

O=C1Nc2ccc(Cl)cc2[C@@](C#CC2CC2)(C(F)(F)F)O1 [EFV, efavirenz, reference compound]
Any graded (Grade 1-4) fasting laboratory abnormality, n subjects [1]: 9
Fasting LDL cholesterol abnormality, any grade, n subjects [1]: 6
Fasting LDL cholesterol, worst Grade 1, n subjects [1]: 3
Fasting LDL cholesterol, worst Grade 2, n subjects [1]: 3
Fasting LDL cholesterol, worst Grade 3, n subjects [1]: 0
Fasting LDL cholesterol, worst Grade 4, n subjects [1]: 0
Fasting glucose (serum, high) abnormality, any grade, n subjects [1]: 2
Fasting glucose (serum, high), worst Grade 1, n subjects [1]: 2
Fasting glucose (serum, high), worst Grade 2, n subjects [1]: 0
Fasting glucose (serum, high), worst Grade 3, n subjects [1]: 0
Fasting glucose (serum, high), worst Grade 4, n subjects [1]: 0
Fasting laboratory abnormality, worst Grade 1, n subjects [1]: 6
Fasting laboratory abnormality, worst Grade 2, n subjects [1]: 3
Fasting laboratory abnormality, worst Grade 3, n subjects [1]: 0
Fasting laboratory abnormality, worst Grade 4, n subjects [1]: 0
Fasting total cholesterol abnormality, any grade, n subjects [1]: 9
Fasting total cholesterol, worst Grade 1, n subjects [1]: 6
Fasting total cholesterol, worst Grade 2, n subjects [1]: 3
Fasting total cholesterol, worst Grade 3, n subjects [1]: 0
Fasting total cholesterol, worst Grade 4, n subjects [1]: 0
Fasting triglycerides abnormality, any grade, n subjects [1]: 0
Fasting triglycerides, worst Grade 1, n subjects [1]: 0
Fasting triglycerides, worst Grade 2, n subjects [1]: 0
Fasting triglycerides, worst Grade 3, n subjects [1]: 0
Fasting triglycerides, worst Grade 4, n subjects [1]: 0
Fasting HDL, mean change from baseline (Week 4, All CVC): 5.90 mg/dL
Fasting LDL, mean change from baseline (Week 4, All CVC): 8.62 mg/dL
Fasting total cholesterol, mean change from baseline (Week 4, All CVC): 19 mg/dL
Fasting total cholesterol/HDL ratio, mean change from baseline (Week 4, All CVC): −0.07
Fasting triglycerides, mean change from baseline (Week 4, All CVC): 23 mg/dL
HOMA-IR, mean change from baseline (Week 4, All CVC): 0.30
HbA1c, mean change from baseline (Week 4, All CVC): −0.01 % Hb
Fasting HDL, mean change from baseline (Week 12, All CVC): 9.45 mg/dL
Fasting LDL, mean change from baseline (Week 12, All CVC): 7.59 mg/dL
Fasting total cholesterol, mean change from baseline (Week 12, All CVC): 18 mg/dL
Fasting total cholesterol/HDL ratio, mean change from baseline (Week 12, All CVC): −0.41
Fasting triglycerides, mean change from baseline (Week 12, All CVC): 3 mg/dL
HOMA-IR, mean change from baseline (Week 12, All CVC): 0.06
HbA1c, mean change from baseline (Week 12, All CVC): −0.07 % Hb
Fasting HDL, mean change from baseline (Week 24, All CVC): 12.75 mg/dL
Fasting LDL, mean change from baseline (Week 24, All CVC): 13.40 mg/dL
Fasting total cholesterol, mean change from baseline (Week 24, All CVC): 24 mg/dL
Fasting total cholesterol/HDL ratio, mean change from baseline (Week 24, All CVC): −0.47
Fasting triglycerides, mean change from baseline (Week 24, All CVC): -10 mg/dL
HOMA-IR, mean change from baseline (Week 24, All CVC): −1.27
HbA1c, mean change from baseline (Week 24, All CVC): −0.01 % Hb
Fasting HDL, mean change from baseline (Week 48, All CVC): 11.94 mg/dL
Fasting LDL, mean change from baseline (Week 48, All CVC): 11.19 mg/dL
Fasting total cholesterol, mean change from baseline (Week 48, All CVC): 26 mg/dL
Fasting total cholesterol/HDL ratio, mean change from baseline (Week 48, All CVC): −0.35
Fasting triglycerides, mean change from baseline (Week 48, All CVC): 14 mg/dL
HOMA-IR, mean change from baseline (Week 48, All CVC): −0.12
HbA1c, mean change from baseline (Week 48, All CVC): −0.08 % Hb
Change in fasting cholesterol (total, LDL, HDL) during treatment (through Week 48): increases were observed
